According to article PMC7997411, “Discovery and Optimization of Selective Inhibitors of Meprin α (Part II)” (Pharmaceuticals, 2021):
Values joined by “and” are separate entries in the source; they are usually repeats but may differ in a detail not shown here. Equal values may be shown once.

Legend:
Type in all cases: biochemical
MMP1 = target: T1, MMP1 (Homo sapiens, UniProt P03956); assay: MMP assay (fluorogenic substrate ES010)
T1 construct: purchased R&D Systems 901-MP
T1 sequence (P03956 100-469): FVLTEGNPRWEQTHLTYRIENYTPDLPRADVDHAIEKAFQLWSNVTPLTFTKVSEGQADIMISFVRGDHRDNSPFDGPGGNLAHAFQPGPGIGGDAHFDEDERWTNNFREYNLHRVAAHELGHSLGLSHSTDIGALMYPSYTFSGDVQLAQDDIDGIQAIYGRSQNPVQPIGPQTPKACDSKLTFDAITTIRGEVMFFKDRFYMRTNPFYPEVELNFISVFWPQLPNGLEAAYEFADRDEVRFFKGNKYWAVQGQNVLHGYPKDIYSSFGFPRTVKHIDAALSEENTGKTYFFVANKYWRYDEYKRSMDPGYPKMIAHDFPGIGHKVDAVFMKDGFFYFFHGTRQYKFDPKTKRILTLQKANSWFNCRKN
Protocol: (§1) MMP-1, MMP-2, MMP-8, MMP-9, MMP-10, MMP-13, MMP-14, ADAM10, ADAM17 and Mca-KPLGL-Dpa-AR-NH2 fluorogenic peptide substrate were purchased from R&D Systems (cat # 901-MP, 902-MP, 908-MP, 911-MP, 910-MP, 511-MM, 918-MP, 936-AD, 930-ADB, and ES010, respectively). All common chemicals were purchased from Sigma. NFF449 was purchased from Tocris (cat# 1391) and actinonin was from Sigma-Aldrich, St. Louis, MO, USA (cat# 01809).
(§2) All assays followed the same general protocol. 5 µL of 2× enzyme solution (5 nM) in assay buffer (50 mM Tricine, 50 mM NaCl, 10 mM CaCl2, 0.05% Brij-35, pH 7.5) were added to solid-bottom black 384 plates (Nunc, cat# 264705). Next, test compounds and pharmacological controls were added to corresponding wells using a 384-pin tool device (V&P Scientific, San Diego). After 30 min incubation at RT, the reactions were started by addition of 5 µL of 2× solutions of MMP substrate (R&D Systems cat#: ES010, 20 µM). Reactions were incubated at RT for 1 h, after which the fluorescence was measured using the Synergy H4 multimode microplate reader (Biotek Instruments) (λexcitation = 324 nm, λemission = 390 nm). All compounds were tested in 10-point, 1:3 serial dilutions dose-response format starting with highest concentration of 100 µM. IC50 values were determined using non-linear regression analysis using the GraphPad Prism 8.0 suite of programs.

human meprin β = target: T2, human meprin β (Homo sapiens, UniProt Q16820); assay: Meprin β assay in a 384-well plate (fluorogenic substrate Mca-EDEDED-K(Dnp)); details: for IC50: triplicate, ± SD
T2 construct: His-tag; made in house; host or cells: BTI-TN-5B1-4 insect cells (baculovirus, amplified in Sf9)
T2 sequence (Q16820 62-701): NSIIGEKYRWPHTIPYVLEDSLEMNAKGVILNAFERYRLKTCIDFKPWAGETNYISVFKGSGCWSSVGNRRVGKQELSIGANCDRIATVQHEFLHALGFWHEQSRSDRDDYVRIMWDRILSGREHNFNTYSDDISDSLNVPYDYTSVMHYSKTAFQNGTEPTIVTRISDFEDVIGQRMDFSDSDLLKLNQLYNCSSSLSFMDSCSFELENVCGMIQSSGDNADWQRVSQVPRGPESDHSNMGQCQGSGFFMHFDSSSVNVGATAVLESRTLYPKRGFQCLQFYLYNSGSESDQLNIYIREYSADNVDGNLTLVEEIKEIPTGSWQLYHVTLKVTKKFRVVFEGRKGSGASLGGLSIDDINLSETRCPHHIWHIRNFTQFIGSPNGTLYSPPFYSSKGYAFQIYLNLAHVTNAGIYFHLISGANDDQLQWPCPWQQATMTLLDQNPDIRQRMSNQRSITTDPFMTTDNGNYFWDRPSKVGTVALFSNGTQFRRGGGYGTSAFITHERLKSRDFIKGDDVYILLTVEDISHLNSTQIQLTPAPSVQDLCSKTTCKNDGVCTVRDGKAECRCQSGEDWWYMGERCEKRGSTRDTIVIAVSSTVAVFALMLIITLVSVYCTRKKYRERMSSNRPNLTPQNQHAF
Protocol: Recombinant human meprin α and meprin β were expressed using the Bac-to-Bac expression system (Gibco Life Technologies, Paisley, UK) as described before. Media and supplements were obtained from Gibco Life Technologies. Recombinant Baculoviruses were amplified in adherently growing Spodoptera frugiperda (Sf)9 insect cells at 27 °C in Grace’s insect medium supplemented with 10% fetal bovine serum, 50 units/mL penicillin, and 50 μg/mL streptomycin. Protein expression was performed in 500 mL suspension cultures of BTI-TN-5B1-4 insect cells growing in Express Five SFM supplemented with 4 mM glutamine, 50 units/mL penicillin, and 50 μg/mL streptomycin in Fernbach-flasks using a Multitron orbital shaker (INFORS AG, Bottmingen, Switzerland). Cells were infected at a density of 2 × 10^6 cells/mL with an amplified viral stock at a MOI of ~10. […] Meprins were activated by trypsin, which was removed afterwards by affinity chromatography using a column containing immobilized chicken ovomucoid, a trypsin inhibitor.
Both assays followed the same general protocol. […] After 30 min incubation at RT, the reactions were started by addition of 5 µL of 2× solutions of substrates (20 µM, meprin α Mca-YVADAPK-K(Dnp), and for meprin β Mca-EDEDED-K(Dnp)).

ADAM17 = target: T3, ADAM17 (Homo sapiens, UniProt P78536); assay: ADAM17 assay
T3 construct: purchased R&D Systems 930-ADB
Protocol: as §1
(§3) Both assays followed the same general protocol. 2.5 µL of 2× enzyme solution (20 nM) in assay buffer (10 mM HEPES, 0.001% Brij-35, pH 7.5) were added to solid bottom black 384 plates (Greiner, cat# 789075). Next, test compounds and pharmacological controls were added to corresponding wells using a 384-pin tool device (V&P Scientific, San Diego). After 30 min incubation at RT, the reactions were started by addition of 2.5 µL of 2× solutions of substrate (R&D Systems cat#: ES010, Mca-KPLGL-Dpa-AR-NH2, 20 µM). Reactions were incubated at RT for 2 h, after which the fluorescence was measured using a Perkin Elmer Viewlux multimode microplate imager (λexcitation = 324 nm, λemission = 393 nm). All compounds were tested in 10-point, 1:3 serial dilutions dose-response format starting with highest concentration of 100 µM. IC50 values were determined using non-linear regression analysis using the GraphPad Prism 8.0 suite of programs.

MMP10 = target: T4, MMP10 (Homo sapiens, UniProt P09238); assay: MMP assay (fluorogenic substrate ES010)
T4 construct: purchased R&D Systems 910-MP
Protocol: as §1, §2

MMP3 = MMP3 (Homo sapiens, UniProt P08254); assay: MMP assay (fluorogenic substrate ES010)
Protocol: as §2

[1] = test system: MMP-2, MMP-3, MMP-8, MMP-9, MMP-10, MMP-14, ADAM10, and ADAM17; assay: Selectivity panel of related metzincins; details: all tested enzymes, Figure 4B
Protocol: as §3
All assays followed the same general protocol. […] Reactions were incubated at RT for 1 h, after which the fluorescence was measured using the Synergy H4 multimode microplate reader (Biotek Instruments) (λexcitation = 324 nm, λemission = 390 nm). […] IC50 values were determined using non-linear regression analysis using the GraphPad Prism 8.0 suite of programs.

T3 sequence (P78536 215-824): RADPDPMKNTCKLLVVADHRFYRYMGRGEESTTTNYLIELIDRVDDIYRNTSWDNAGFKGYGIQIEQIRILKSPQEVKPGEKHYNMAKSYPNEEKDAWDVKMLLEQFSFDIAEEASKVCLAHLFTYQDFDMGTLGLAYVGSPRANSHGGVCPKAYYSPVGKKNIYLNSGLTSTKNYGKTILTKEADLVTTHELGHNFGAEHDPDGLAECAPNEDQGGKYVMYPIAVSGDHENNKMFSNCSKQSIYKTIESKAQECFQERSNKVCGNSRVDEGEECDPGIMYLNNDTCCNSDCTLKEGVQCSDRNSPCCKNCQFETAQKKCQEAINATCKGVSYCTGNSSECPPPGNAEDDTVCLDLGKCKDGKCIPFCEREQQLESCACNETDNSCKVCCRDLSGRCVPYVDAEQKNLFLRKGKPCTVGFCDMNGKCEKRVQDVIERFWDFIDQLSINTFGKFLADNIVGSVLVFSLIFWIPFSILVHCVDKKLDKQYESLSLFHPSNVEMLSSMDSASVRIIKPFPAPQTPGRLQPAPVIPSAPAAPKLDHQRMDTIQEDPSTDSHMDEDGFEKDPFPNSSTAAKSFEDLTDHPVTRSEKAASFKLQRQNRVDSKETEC
T4 sequence (P09238 99-476): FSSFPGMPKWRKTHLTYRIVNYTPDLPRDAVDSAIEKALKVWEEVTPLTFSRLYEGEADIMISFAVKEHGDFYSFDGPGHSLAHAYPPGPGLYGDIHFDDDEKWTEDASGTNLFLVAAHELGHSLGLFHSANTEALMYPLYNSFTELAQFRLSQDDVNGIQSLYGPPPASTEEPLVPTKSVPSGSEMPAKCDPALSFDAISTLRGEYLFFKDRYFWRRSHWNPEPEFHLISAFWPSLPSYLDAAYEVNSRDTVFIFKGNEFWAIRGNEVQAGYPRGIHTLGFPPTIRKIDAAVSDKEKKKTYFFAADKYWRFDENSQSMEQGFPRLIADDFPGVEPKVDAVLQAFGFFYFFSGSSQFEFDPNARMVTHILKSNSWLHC
MMP3, sequence (P08254 100-477, species assumed): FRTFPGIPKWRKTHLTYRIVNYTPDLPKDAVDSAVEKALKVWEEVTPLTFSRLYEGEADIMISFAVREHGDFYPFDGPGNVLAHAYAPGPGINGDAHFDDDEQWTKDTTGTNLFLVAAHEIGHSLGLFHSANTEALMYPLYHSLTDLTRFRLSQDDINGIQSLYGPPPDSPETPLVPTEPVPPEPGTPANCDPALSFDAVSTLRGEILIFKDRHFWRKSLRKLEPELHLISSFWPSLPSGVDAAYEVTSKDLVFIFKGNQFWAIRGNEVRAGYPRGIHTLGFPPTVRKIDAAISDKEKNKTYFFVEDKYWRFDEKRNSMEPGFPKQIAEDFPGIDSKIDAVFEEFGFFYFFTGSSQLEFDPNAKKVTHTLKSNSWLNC

CCCCC[C@H](CC(=O)NO)C(=O)N[C@H](C(=O)N1CCC[C@H]1CO)C(C)C [Actinonin, actinonin, reference compound]
IC50 (MMP1): 0.1 µM | IC50 (human meprin β): 4.8 ± 0.5 µM | IC50 (ADAM17): 0.2 ± 0.02 µM

COc1cc(OC)nc(SCc2nnc(SCC(=O)NO)n2-c2ccc(N(C)C)cc2)n1 [SR24717]
IC50 (MMP10): > 100 µM | IC50 (MMP3): > 100 µM | extent of meprin β inhibition (in words) (human meprin β; scale-up batch, higher doses tested, Figure 4A): only partial meprin β inhibition | IC50 (human meprin β): ≥ 70 µM and 70 µM | IC50 [1]: > 100 µM | IC50 (ADAM17): > 100 µM
